Test results from patent US10450341B2, “Cyclic di-nucleotides as modulators of STING” (GlaxoSmithKline Intellectual Property Development Limited, priority 2014, dated 2019).

Molecular target: STING (Homo sapiens, UniProt Q86WV6)
Assay: STING binding assay similar to that described by Li et al

STING, sequence (Q86WV6 whole entry H232R, species assumed): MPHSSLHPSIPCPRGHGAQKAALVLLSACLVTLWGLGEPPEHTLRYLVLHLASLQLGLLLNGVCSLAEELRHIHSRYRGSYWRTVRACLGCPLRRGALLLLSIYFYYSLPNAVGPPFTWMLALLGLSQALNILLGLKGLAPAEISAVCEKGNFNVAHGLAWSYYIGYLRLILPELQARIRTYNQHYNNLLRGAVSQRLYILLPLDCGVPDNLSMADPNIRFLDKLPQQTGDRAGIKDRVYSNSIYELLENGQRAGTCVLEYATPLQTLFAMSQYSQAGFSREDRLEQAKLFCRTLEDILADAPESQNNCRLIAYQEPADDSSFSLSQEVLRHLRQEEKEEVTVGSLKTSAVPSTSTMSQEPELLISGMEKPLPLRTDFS

With `Nc1nc2c(ncn2[C@@H]2C[C@@H]3COP(=O)(O)O[C@H]4[C@@H](F)[C@H](n5cnc6c(N)ncnc65)O[C@@H]4COP(=O)(O)O[C@@H]2[C@@H]3O)c(=O)[nH]1` [Example 4, (1S,6R,8R,9R,10R,15R,17R,18R)-17-(2-Amino-6-oxo-6,9-dihydro-1H-purin-9-yl)-8-(6-amino-9H-purin-9-yl)-9-fluoro-3,12,18-trihydroxy-2,4,7,11,13-pentaoxa-3λ^5,12λ^5-diphosphatricyclo[13.2.1.0^6,10]octadecane-3,12-dione] the IC50 was under 100 µM.
